Test results reported in EP4785943A1, “SOLID DISPERSION, PHARMACEUTICAL COMPOSITION, AND PREPARATION METHOD AND USE THEREFOR” (4B Technologies (Beijing) Co., Limited, priority 2023, dated 2025).
Converted amounts (≈) assume the structure as drawn. Like-named read-outs stand apart in the source and are kept apart here.

Assay: Solubility testing in FaSSIF, FeSSIF and SGF (37°C, HPLC of filtrate)
Type: physicochemical
Settings: for pH after 2 h: pH of the 2-hour filtrate; for solubility at 0.5 h / solubility at 2 h: thermodynamic from solid, 37°C; for solubility at 0.5 h: read-out: Solubility (mg/mL) 0.5 h; for solubility at 2 h: read-out: Solubility (mg/mL) 2 h
Method: Preparation of FaSSIF stock solution with pH buffer: Approximately 621 mg of NaCl, approximately 345 mg of NaH2PO4, and approximately 41.9 mg of NaOH are weighed into a 100 mL volumetric flask, and dissolved in water to approximately 5 cm below the mark. After cooling and pH adjustment, the resulting mixture is diluted to volume with water, and mixed thoroughly with shaking.
FeSSIF stock solution: Approximately 866 mg of glacial acetic acid, approximately 406 mg of NaOH, and approximately 1184 mg of NaCl are weighed into a 100 mL volumetric flask, and dissolved in water to approximately 5 cm below the mark. After cooling and pH adjustment, the resulting mixture is diluted to volume with water, and mixed thoroughly with shaking.
SGF solution: Approximately 202 mg of NaCl and approximately 321 mg of pepsin are weighed into a 100 mL volumetric flask, followed by addition of 700 µL of HCl, and dissolved in water to approximately 5 cm below the mark. After cooling, the resulting mixture is diluted to volume with water, and mixed thoroughly with shaking.
(§1) FaSSIF solution: FaSSIF stock solution is transferred to a 100 mL volumetric flask, followed by addition of approximately 225 mg of FaSSIF powder, and dissolved in FaSSIF stock solution to approximately 5 cm below the mark. After cooling, the resulting mixture is diluted to volume with FaSSIF stock solution, mixed thoroughly with shaking, and allowed to stand for 2 hours before use.
as §1, with “FeSSIF” for “FaSSIF”, “1122” for “225”, “solution, and” for “solution,”, “shaking.” for “shaking, and allowed to stand for 2 hours before use.”
Approximately 20 mg of sample is weighed into a 4 mL vial, followed by addition of 4 mL of different solvents (FaSSIF, FeSSIF, SGF). After the vial is equipped with a magnetic stir bar, the mixture is stirred at 37°C for 2 hours, during which samples are taken at 0.5 hours and 2 hours. After filtration, the sample concentration in the filtrate is determined by HPLC. The pH of the 2-hour filtrate and the crystal form of the remaining solid are also measured.

solubility in aqueous media (background statement): poorly soluble
pH after 2 h (FaSSIF): 6.58
pH after 2 h (FeSSIF): 5.02
pH after 2 h (SGF): 1.28
solubility at 0.5 h (simulated gastric fluid, SGF): 0.699 mg/mL (≈ 1450 µM)
solubility at 2 h (simulated gastric fluid, SGF): 0.524 mg/mL (≈ 1090 µM)
solubility at 0.5 h (FaSSIF): 0.00026 mg/mL (≈ 0.539 µM)
solubility at 2 h (FaSSIF): 0.00026 mg/mL (≈ 0.539 µM)
solubility at 0.5 h (FeSSIF): 0.00313 mg/mL (≈ 6.49 µM)
solubility at 2 h (FeSSIF): 0.00293 mg/mL (≈ 6.07 µM)
SMILES: COc1cc(Nc2ccc3ncc(N4CCOCC4)nc3c2C#N)ccc1OCc1ccc(C)nc1 [Compound 1, 6-((3-methoxy-4-((6-methylpyridin-3-yl)methoxy)phenyl)amino)-3-morpholinoquinoxaline-5-carbonitrile]
